Assay results taken from patent publication US20230233531A1, “USE OF NON-STEROIDAL ANTI-INFLAMMATORY COMPOUNDS FOR TREATMENT OF INFLAMMATION” (University of Houston System, priority 2022, published 2023).
“Also recorded” adds a separate entry of the source.

Experiments:
[1] = test system: carrageenan-induced paw inflammation; assay: Carrageenan-induced paw inflammation/edema in BABL-c mice; assay type: in vivo; settings: for inflammatory edema (paw volume quantitation): 50 mg/kg intramuscular 10 min before carrageenan, vs saline control; for inflammatory edema (paw volume quantitation) / time course of paw volume: 50 mg/kg; for paw thickness: 50 mg/kg intramuscular, vs control group; for time course of paw volume: 0-6 h after carrageenan
Protocol: (§1) Animals. The adult CD-1 mice (18-20 g) and BABL-c (18-20 g) were purchase from Envigo Plus vendor (USA) and used in this study. The mice were hosted under standard condition (23±2° C.; 12 h/12 h light/dark cycle; 50% humidity). The protocol was approved by Institutional Animal Care and Use Committee (IACUC). And all procedures were conducted according to IACUC. After all the experiments, the animals were euthanized with CO2 under the procedure of IACUC. Injections of compounds. The synthesized compounds to be tested were injected 10 mins before carrageenan injection. All the compounds were freshly prepared. All the compounds were dissolved in PBS and totally dissolved after ultrasonic. The compounds were injected with 26-G sterile needle via intramuscular injection. After immobilizing the mice, the hind limb was immobilized with the little finger and the then, the injection site was disinfected with 70% alcohol, and the needle was inserted into the root of the hindlimb at an angle of 45 degrees. The needle plug was withdrawn to make sure there was no injection into the blood vessel. If there was no blood return, the compounds were injected slowly. The mice were place back to their cages for 10 mins before the next step. Procedures for establishing of paw inflammation. The procedure of establishing inflammation mice model and the procedure of measurement of paw edema were describe as follow: 1% lambda-carrageenan was freshly prepared before injection. Carrageenan powder was first dissolved in cold PBS and vortexed for 5 times. Then the mixture was placed in 50° C. water for 5 mins until all the milky white matrix dissolved completely. […]*3⁄8 (0.45 mm*10 mm) sterile needle was used for injection. Carrageenan was subcutaneous injected slowly into the middle of the mice left hind paw. The time of injection Carrageenan was count as the start time point (0 h) and the paw swelling size was recorded as paw thickness and paw edema volume. Establishing of Carrageenan-induced Inflammatory Paw Edema Mice Model. […] The carrageenan-induced paw edema inflammation is a well-defined model of acute inflammation. It is widely and commonly used for evaluating the effectiveness of inhibitors of prostaglandin synthesis. Carrageenan is a complex of polysaccharides that functions in stimulating the expressions of COX-2 and mPGES-1 to release the proinflammatory mediator, PGE2, and its downstream factors, such as bradykinin, histamine, tachykinins, reactive oxygen, and nitrogen species. In this study, to induce acute inflammation, a single dose of 25 μl of 1% solution of λ-carrageenan was injected subcutaneously into the pad area of the hairless skin on the underside of the left hind paw (FIG. 1A). The injection was performed using a 26-gauge needle targeting the center of the plantar region. The administration of leading compounds and the positive control group, Celebrex, and the negative control saline occurred 10 minutes prior to the λ-carrageenan […] injection. To obtain the anti-inflammatory data, the animal condition was monitored hourly and paw-edema volume and thickness were measured hourly from 0 h to 6 h and again at 24 h, the injection of λ-carrageenan was counted as 0 h (FIG. 1B). After 24 h, local blood was collected from the hind paw of the mice for the next step assay to determine the PGE2 and PGI2 levels. Tissue samples, including the stomach and kidney, were collected after euthanization. The BABL-c mice were arranged into three groups: A. Control (Ctl) group: 50 μl saline; B. 2Me group: 50 mg/kg, 50 ul; C. 3-F group: 50 mg/kg, 50 ul. the CD-1 mice were arranged into 6 groups: A. Control (Ctl) group: saline 50 ul; B. 2-Me group: 50 mg/kg, 50 ul; C. 3-F group: 50 mg/kg, 50 ul; D: 2-Me group: 10 mg/kg, 50 ul; E. 3-F group: 10 mg/kg, 50 ul; F. Celebrex group: 50 mg/kg, 50 ul. Establishing measurements of the carrageenan-induced acute inflammation/edema. […]

[2] = test system: carrageenan-induced paw inflammation; assay: Carrageenan-induced paw inflammation/edema in CD-1 mice; assay type: in vivo; settings: for dose-dependent anti-inflammatory activity, paw thickness: 10 mg/kg vs 50 mg/kg; for dose-dependent anti-inflammatory activity, paw edema volume: 10 mg/kg vs 50 mg/kg, 2, 4 and 6 h; for paw thickness increase / paw volume increase: 50 mg/kg intramuscular, vs control group; for paw volume increase: 50 mg/kg
Protocol: as §1

COX-2-10aa-mPGES-1 = molecular target: T1, COX-2-10aa-mPGES-1 (Homo sapiens, UniProt O14684+P35354); assay: Enzymelink COX-2-10aa-mPGES-1 high through-put screening; assay type: biochemical; settings: cross-filtered between mPGES-1, PGIS and COX-2 with AA as substrate
T1 construct: made in house
T1 sequence (P35354+O14684 with tags, fused parts or gaps): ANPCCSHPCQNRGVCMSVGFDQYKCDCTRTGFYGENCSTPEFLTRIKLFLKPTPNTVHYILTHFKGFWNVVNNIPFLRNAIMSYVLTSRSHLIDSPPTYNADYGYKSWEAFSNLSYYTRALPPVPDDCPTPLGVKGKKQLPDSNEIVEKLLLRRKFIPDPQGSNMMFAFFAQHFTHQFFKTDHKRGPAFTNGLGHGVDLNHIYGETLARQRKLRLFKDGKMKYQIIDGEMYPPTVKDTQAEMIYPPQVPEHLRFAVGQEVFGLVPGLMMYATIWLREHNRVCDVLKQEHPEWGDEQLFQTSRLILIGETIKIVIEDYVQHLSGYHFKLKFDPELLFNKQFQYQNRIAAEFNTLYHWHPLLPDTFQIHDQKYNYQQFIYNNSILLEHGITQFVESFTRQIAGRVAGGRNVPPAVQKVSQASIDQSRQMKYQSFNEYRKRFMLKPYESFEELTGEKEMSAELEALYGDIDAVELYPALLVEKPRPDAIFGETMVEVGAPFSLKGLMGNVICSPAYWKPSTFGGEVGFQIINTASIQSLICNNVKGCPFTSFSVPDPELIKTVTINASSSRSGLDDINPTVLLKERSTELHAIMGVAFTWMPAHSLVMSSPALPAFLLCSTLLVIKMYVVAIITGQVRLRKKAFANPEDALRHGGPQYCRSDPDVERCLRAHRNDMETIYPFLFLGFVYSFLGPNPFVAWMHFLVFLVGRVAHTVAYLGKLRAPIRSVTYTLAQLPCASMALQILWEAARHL
Text: There is an urgent need for new anti-inflammatory drugs with less the adverse effects in clinical practice. Developing drugs which inhibit mPGES-1 without affecting other COX downstream synthases to only decrease PGE2 level at inflammation site is an ideal therapeutic strategy to treat inflammatory diseases. By successfully establishing a system of single-chain Enzymelinks of the upstream COX-2 and the downstream mPGES-1 thread by a 10 amino acid (AA) bio-linker (COX-2-10aa-mPGES-1 [9,11]), one can mimic endogenous inflammatory PGE2 biosynthesis without affecting COX-2 coupling to other enzyme synthases, for example, PGIS. This kind of Enzymelink has a kinetic advantage for converting the initial substrate, AA, to pro-inflammatory PGE2 via a triple catalytic reaction due to the shorter distance between the catalytic domain of the two enzymes within a single polypeptide chain. By this method, it was possible to reduce the interference with the mPGES-1 inhibitor screen, such as the nonspecific inhibition and cross-inhibition of PGIS, by avoiding the use of the unstable intermediate PGH2 as the initial substrate for PGE2 biosynthesis. At the same time, another Enzymelink, COX-2-10aa-PGIS was established in order to verify that the screen compound will not affect PGI2 synthesis. […]

Row | selectivity for mPGES-1 (COX-2-10aa-mPGES-1) | Structure (SMILES) | inflammatory edema (paw volume quantitation) [1] | paw thickness [1] | time course of paw volume [1] | dose-dependent anti-inflammatory activity, paw thickness [2] | dose-dependent anti-inflammatory activity, paw edema volume [2] | paw thickness increase [2] | paw volume increase [2]
1 | highly selective for mPGES-1 | CC(C)c1ccc(-c2nc3cc(N)ccc3o2)cc1 [2-Me] | significantly decreased the inflammatory edema; also recorded: significant effects on reducing the paw edema | significant anti-inflammatory potency | increased slightly in the first 4 hours and decreases in the following 2 hours | improve the anti-inflammatory effects | improved its anti-inflammation activity | significantly decrease | significantly decrease; also recorded: significant effects on reducing the paw edema
2 | highly selective for mPGES-1 | Nc1ccc2oc(-c3ccc(C(F)(F)F)cc3)nc2c1 [3-F] | significantly decreased the inflammatory edema; also recorded: significant effects on reducing the paw edema | significant anti-inflammatory potency | increased during the first 2 hours but decreased within the next 4 hours | improve the anti-inflammatory effects | increasing potent anti-inflammatory effect corresponding with the dosage increase | significantly decrease | significantly decrease; also recorded: significant effects on reducing the paw edema
